The results in this text go back to US20260022142A1, “MACROCYCLIC IMMUNOMODULATORS” (Bristol-Myers Squibb Company, priority 2022, published 2026).

Bridge positions count the residues as written; N and C are the ends. Square brackets hold non-standard residues; d marks the D form. Peptide text beside a SMILES is read from it. * marks the point of attachment. ξ: configuration not given here. Phe(4-COOH) = N[C@@H](Cc1ccc(C(=O)O)cc1)C(=O)O; Bip = N[C@@H](Cc1ccc(-c2ccccc2)cc1)C(=O)O; Tyr(3-F) = N[C@@H](Cc1ccc(O)c(F)c1)C(=O)O; Phe(3-Me) = Cc1cccc(C[C@H](N)C(=O)O)c1; Val(3-F) = CC(C)(F)[C@H](N)C(=O)O; hArg = N=C(N)NCCCC[C@H](N)C(=O)O; 4Pal = N[C@@H](Cc1ccncc1)C(=O)O; 3Thi = N[C@@H](Cc1ccsc1)C(=O)O; Cha = N[C@@H](CC1CCCCC1)C(=O)O; Cit = NC(=O)NCCC[C@H](N)C(=O)O; Thr(3ξ) = CC(O)[C@H](N)C(=O)O; 12Ado = NCCCCCCCCCCCC(=O)O; Carboxymethyl = O=C(O)C*; Orn = NCCC[C@H](N)C(=O)O; Aun = NCCCCCCCCCCC(=O)O; Dab = NCC[C@H](N)C(=O)O; Dap = NC[C@H](N)C(=O)O; AEEA = NCCOCCOCC(=O)O

T1 sequence (Q15116 25-288): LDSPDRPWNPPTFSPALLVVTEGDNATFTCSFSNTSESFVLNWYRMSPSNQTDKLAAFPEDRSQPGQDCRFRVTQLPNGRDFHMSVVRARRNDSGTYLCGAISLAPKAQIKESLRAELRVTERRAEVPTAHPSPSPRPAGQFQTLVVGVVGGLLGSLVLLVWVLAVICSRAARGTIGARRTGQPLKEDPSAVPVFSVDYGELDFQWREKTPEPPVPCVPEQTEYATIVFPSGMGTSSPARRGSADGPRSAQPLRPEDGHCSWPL

The assay has as its target T1, PD-1/PD-L1 interaction (PE-labeled human PD-L1-Ig binding to Jurkat cell line over-expressing human PD-1) (Homo sapiens, UniProt Q15116).
T1 construct: expressed in transfected cells; host or cells: Jurkat
The assay can be described thus: Jurkat-PD-1 Cell Binding High-Content Screening Assay (CBA). It is filed as cell-based. Conditions: Jurkat cell line over-expressing human PD-1; PE-labeled PD-L1-Ig 20 nM final; read-out: Jurkat hPD1-PDL1 IC50. Put shortly: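 Binding of fluorescent PD-L1-Ig (20 nM final) to Jurkat-PD-1 cells was measured by automated imaging after 1 h, following a 2 h compound pre-treatment at 37° C.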
Consider `Cc1cccc(C[C@@H]2NC(=O)[C@H](CC(=O)O)NC(=O)[C@H](Cc3ccc(OCC(=O)O)cc3)NC(=O)[C@H](CN)NC(=O)CSC[C@@H](C(=O)N[C@@H](C)C(=O)N[C@@H](CC(=O)O)C(=O)NCCOCCOCC(=O)N[C@@H](CCC(=O)O)C(=O)NCCOCCOCC(=O)NCCCCCCCCCCC(=O)O)NC(=O)[C@H]([C@@H](C)O)NC(=O)[C@H](C(C)C)NC(=O)[C@H](CC3CCCCC3)NC(=O)[C@H](CCN)NC(=O)[C@@H](CC(C)C)NC(=O)[C@H](CCCN)NC(=O)[C@H](CCCNC(N)=O)NC(=O)[C@H](Cc3ccc(-c4ccccc4)cc3)NC(=O)[C@H](C(C)C)NC2=O)c1` [Compound 1016] ({CH2CO}-[Dap]Y(Carboxymethyl)D[Phe(3-Me)]V[Bip][Cit][Orn][dL][Dab][Cha]VTCAD[AEEA]E[AEEA][Aun]-OH; thioether N-14), for which the half-inhibitory concentration (IC50) is 6 nM.

For `Cc1cccc(C[C@@H]2NC(=O)[C@H](CC(=O)O)NC(=O)[C@H](Cc3ccc(OCC(=O)O)cc3)NC(=O)[C@H](Cc3ccccc3)NC(=O)CSC[C@@H](C(=O)N[C@@H](CCN)C(=O)NCCCCCCCCCCC(=O)O)NC(=O)[C@H](Cc3cnc[nH]3)NC(=O)[C@H](C(C)O)NC(=O)[C@H](CC3CCCCC3)NC(=O)[C@H](CCN)NC(=O)[C@@H](CC(C)C)NC(=O)[C@H](CCCN)NC(=O)[C@H](Cc3ccc(OCC(=O)O)cc3)NC(=O)[C@H](Cc3ccc(-c4ccccc4)cc3)NC(=O)[C@H](Cc3ccc(C(=O)O)cc3)NC2=O)c1` (stereo partly drawn) [Compound 3709] ({CH2CO}-FY(Carboxymethyl)D[Phe(3-Me)][Phe(4-COOH)][Bip]Y(Carboxymethyl)[Orn][dL][Dab][Cha][Thr(3ξ)]HC[Dab][Aun]-OH; thioether N-14), the IC50 turned out to be 54.5 nM.

Turning to `CC(C)C[C@H]1NC(=O)[C@H](CCCN)NC(=O)[C@H](C(C)C)NC(=O)[C@H](Cc2ccc(-c3ccccc3)cc2)NC(=O)[C@H](C(C)C)NC(=O)[C@H](Cc2c[nH]c3ccccc23)NC(=O)[C@H](CC(=O)O)NC(=O)[C@H](Cc2ccc(OCC(=O)O)cc2)NC(=O)[C@H](Cc2ccc(OCC(=O)O)cc2)NC(=O)CSC[C@@H](C(=O)NCCCCCCCCCCC(=O)O)NC(=O)[C@H](CCCNC(=N)N)NC(=O)[C@H](C(C)C)NC(=O)[C@H](CC2CCCCC2)NC(=O)[C@H](CCN)NC1=O` [Compound 2602], the IC50 was found to be 18.4 nM.

As for `CC(C)C[C@H]1NC(=O)[C@H](CN)NC(=O)[C@H](C(C)C)NC(=O)[C@H](Cc2ccc(-c3ccccc3)cc2)NC(=O)[C@H](C(C)C)NC(=O)[C@H](Cc2c[nH]c3ccccc23)NC(=O)[C@H](CC(=O)O)NC(=O)[C@H](Cc2ccc(OCC(=O)O)cc2)NC(=O)[C@H](Cc2ccsc2)NC(=O)CSC[C@@H](C(=O)NCCOCCOCC(=O)N[C@@H](CCCN)C(=O)NCCCCCCCCCCC(=O)O)NC(=O)[C@H](C(C)O)NC(=O)[C@H](C(C)C)NC(=O)[C@H](CC2CCCCC2)NC(=O)[C@H](CCN)NC1=O` (stereo partly drawn) [Compound 3209] ({CH2CO}-[3Thi]Y(Carboxymethyl)DWV[Bip]V[Dap][dL][Dab][Cha]V[Thr(3ξ)]C[AEEA][Orn][Aun]-OH; thioether N-14), the IC50 came to 17.1 nM.

With `CC(C)C[C@H]1NC(=O)[C@H](CCN)NC(=O)[C@H](C(C)C)NC(=O)[C@H](Cc2ccc(-c3ccccc3)cc2)NC(=O)[C@H](C(C)C)NC(=O)[C@H](Cc2c[nH]c3ccccc23)NC(=O)[C@H](CC(=O)O)NC(=O)[C@H](Cc2ccc(OCC(=O)O)cc2)NC(=O)[C@H](Cc2ccsc2)NC(=O)CSC[C@@H](C(=O)NCCOCCOCC(=O)N[C@@H](CCN)C(=O)NCCCCCCCCCCC(=O)O)NC(=O)[C@H](CCCNC(=N)N)NC(=O)[C@H](C(C)C)NC(=O)[C@H](CC2CCCCC2)NC(=O)[C@H](CCN)NC1=O` [Compound 3283] ({CH2CO}-[3Thi]Y(Carboxymethyl)DWV[Bip]V[Dab][dL][Dab][Cha]VRC[AEEA][Dab][Aun]-OH; thioether N-14), the 50% inhibitory concentration (IC50) stood at 13.8 nM.

For `Cc1cccc(C[C@@H]2NC(=O)[C@H](CC(=O)O)NC(=O)[C@H](Cc3ccc(OCC(=O)O)cc3)NC(=O)[C@H](CCCNC(=N)N)NC(=O)CSC[C@@H](C(=O)N[C@@H](CCCCN)C(=O)NCCCCCCCCCCC(=O)O)NC(=O)[C@H](C(C)O)NC(=O)[C@H](C(C)C)NC(=O)[C@H](CC3CCCCC3)NC(=O)[C@H](CCN)NC(=O)[C@@H](CC(C)C)NC(=O)[C@H](CCCN)NC(=O)[C@H](CCCNC(N)=O)NC(=O)[C@H](Cc3ccc(-c4ccccc4)cc3)NC(=O)[C@H](C(C)C)NC2=O)c1` (stereo partly drawn) [Compound 3468] ({CH2CO}-RY(Carboxymethyl)D[Phe(3-Me)]V[Bip][Cit][Orn][dL][Dab][Cha]V[Thr(3ξ)]CK[Aun]-OH; thioether N-14), the concentration for half-maximal inhibition (IC50) worked out at 26 nM.

Regarding `CC(C)C[C@H]1NC(=O)[C@H](CCCN)NC(=O)[C@H](Cc2ccc(OCC(=O)O)cc2)NC(=O)[C@H](Cc2ccc(-c3ccccc3)cc2)NC(=O)[C@H](Cc2ccc(O)cc2)NC(=O)[C@H](Cc2ccc(O)c(F)c2)NC(=O)[C@H](CC(=O)O)NC(=O)[C@H](Cc2ccc(OCC(=O)O)cc2)NC(=O)[C@H](CCCNC(=N)N)NC(=O)CSC[C@@H](C(=O)N[C@@H](CCN)C(=O)NCCCCCCCCCCC(=O)O)NC(=O)[C@H]([C@@H](C)O)NC(=O)[C@H](C(C)C)NC(=O)[C@H](CC2CCCCC2)NC(=O)[C@H](CCN)NC1=O` [Compound 2105] ({CH2CO}-RY(Carboxymethyl)D[Tyr(3-F)]Y[Bip]Y(Carboxymethyl)[Orn][dL][Dab][Cha]VTC[Dab][Aun]-OH; thioether N-14), the IC50 was 113 nM.

As to `CC(C)C[C@H]1NC(=O)[C@H](CCCN)NC(=O)[C@H](C(C)C)NC(=O)[C@H](Cc2ccc(-c3ccccc3)cc2)NC(=O)[C@H](C(C)C)NC(=O)[C@H](Cc2c[nH]c3ccccc23)NC(=O)[C@H](CC(=O)O)NC(=O)[C@H](CCCCNC(=N)N)NC(=O)[C@H](Cc2ccc(OCC(=O)O)cc2)NC(=O)CSC[C@@H](C(=O)NCCOCCOCC(=O)N[C@@H](CCCCN)C(=O)NCCCCCCCCCCCC(=O)O)NC(=O)[C@H](CCN)NC(=O)[C@H](C(C)C)NC(=O)[C@H](CC2CCCCC2)NC(=O)[C@H](Cc2cnc[nH]2)NC1=O` [Compound 3158] ({CH2CO}-Y(Carboxymethyl)[hArg]DWV[Bip]V[Orn][dL]H[Cha]V[Dab]C[AEEA]K[12Ado]-OH; thioether N-14), the IC50 was determined as 107 nM.

Take `Cc1cccc(C[C@@H]2NC(=O)[C@H](CC(=O)O)NC(=O)[C@H](Cc3ccc(OCC(=O)O)cc3)NC(=O)[C@H](C(C)O)NC(=O)CSC[C@@H](C(=O)N[C@@H](CCN)C(=O)NCCOCCOCC(=O)NCCCCCCCCCCC(=O)O)NC(=O)[C@H](CCC(=O)O)NC(=O)[C@H](C(C)C)NC(=O)[C@H](CC3CCCCC3)NC(=O)[C@H](CCN)NC(=O)[C@@H](CC(C)C)NC(=O)[C@H](CCCN)NC(=O)[C@H](Cc3ccc(OCC(=O)O)cc3)NC(=O)[C@H](Cc3ccc(-c4ccccc4)cc3)NC(=O)[C@H](Cc3ccc(C(=O)O)cc3)NC2=O)c1` (stereo partly drawn) [Compound 3737] ({CH2CO}-[Thr(3ξ)]Y(Carboxymethyl)D[Phe(3-Me)][Phe(4-COOH)][Bip]Y(Carboxymethyl)[Orn][dL][Dab][Cha]VEC[Dab][AEEA][Aun]-OH; thioether N-14): the 50% inhibitory concentration (IC50) was 10.5 nM.

In the case of `CC(C)C[C@H]1NC(=O)[C@H](CCCN)NC(=O)[C@H](C(C)C)NC(=O)[C@H](Cc2ccc(-c3ccccc3)cc2)NC(=O)[C@H](C(C)C)NC(=O)[C@H](Cc2c[nH]c3ccccc23)NC(=O)[C@H](CC(=O)O)NC(=O)[C@H](Cc2c[nH]cn2)NC(=O)[C@H](CCCCNC(=N)N)NC(=O)CSC[C@@H](C(=O)N[C@@H](CCN)C(=O)NCCCCCCCCCCC(=O)O)NC(=O)[C@H](CCCN)NC(=O)[C@H](C(C)C)NC(=O)[C@H](CC2CCCCC2)NC(=O)[C@H](CCN)NC1=O` [Compound 3263] ({CH2CO}-[hArg]HDWV[Bip]V[Orn][dL][Dab][Cha]V[Orn]C[Dab][Aun]-OH; thioether N-14), the IC50 was 55.3 nM.

For `Cc1cccc(C[C@@H]2NC(=O)[C@H](CC(=O)O)NC(=O)[C@H](Cc3ccc(OCC(=O)O)cc3)NC(=O)[C@H](Cc3ccncc3)NC(=O)CSC[C@@H](C(=O)N[C@@H](CCN)C(=O)NCCOCCOCC(=O)NCCOCCOCC(=O)NCCCCCCCCCCC(=O)O)NC(=O)[C@H](Cc3cnc[nH]3)NC(=O)[C@H](C(C)C)NC(=O)[C@H](CC3CCCCC3)NC(=O)[C@H](CCN)NC(=O)[C@@H](CC(C)C)NC(=O)[C@H](CCCN)NC(=O)[C@H](Cc3ccc(C(=O)O)cc3)NC(=O)[C@H](Cc3ccc(-c4ccccc4)cc3)NC(=O)[C@H](Cc3ccc(C(=O)O)cc3)NC2=O)c1` [Compound 3766] ({CH2CO}-[4Pal]Y(Carboxymethyl)D[Phe(3-Me)][Phe(4-COOH)][Bip][Phe(4-COOH)][Orn][dL][Dab][Cha]VHC[Dab][AEEA][AEEA][Aun]-OH; thioether N-14), the IC50 amounted to 31.2 nM.

Turning to `CC(C)C[C@H]1NC(=O)[C@H](CCCNC(N)=O)NC(=O)[C@H](C(C)C)NC(=O)[C@H](Cc2ccc(-c3ccccc3)cc2)NC(=O)[C@H](C(C)C)NC(=O)[C@H](Cc2c[nH]c3ccccc23)NC(=O)[C@H](CC(=O)O)NC(=O)[C@H](Cc2ccc(OCC(=O)O)cc2)NC(=O)[C@H](Cc2ccsc2)NC(=O)CSC[C@@H](C(=O)NCCOCCOCC(=O)N[C@@H](CCCN)C(=O)NCCCCCCCCCCC(=O)O)NC(=O)[C@H](C(C)O)NC(=O)[C@H](C(C)C)NC(=O)[C@H](CC2CCCCC2)NC(=O)[C@H](CCN)NC1=O` (stereo partly drawn) [Compound 3208] ({CH2CO}-[3Thi]Y(Carboxymethyl)DWV[Bip]V[Cit][dL][Dab][Cha]V[Thr(3ξ)]C[AEEA][Orn][Aun]-OH; thioether N-14), the concentration for half-maximal inhibition (IC50) was determined as 603 nM.

As for `Cc1cccc(C[C@@H]2NC(=O)[C@H](CC(=O)O)NC(=O)[C@H](Cc3ccc(OCC(=O)O)cc3)NC(=O)[C@H](CCCNC(=N)N)NC(=O)CSC[C@@H](C(=O)N[C@@H](CCN)C(=O)NCCCCCCCCCCC(=O)O)NC(=O)[C@H]([C@@H](C)O)NC(=O)[C@H](C(C)(C)F)NC(=O)[C@H](CC3CCCCC3)NC(=O)[C@H](CCN)NC(=O)[C@@H](CC(C)C)NC(=O)[C@H](CCCN)NC(=O)[C@H](Cc3ccc(O)cc3)NC(=O)[C@H](Cc3ccc(-c4ccccc4)cc3)NC(=O)[C@H](Cc3ccc(O)cc3)NC2=O)c1` [Compound 2126] ({CH2CO}-RY(Carboxymethyl)D[Phe(3-Me)]Y[Bip]Y[Orn][dL][Dab][Cha][Val(3-F)]TC[Dab][Aun]-OH; thioether N-14), the IC50 stood at 35.7 nM.

The term IC50 denotes the concentration at which inhibition is half-maximal.
